The text below walks through data of US8455534B2, “Estrogen receptor modulators and uses thereof” (Aragon Pharmaceuticals, Inc., priority 2010, dated 2013).

SMILES strings stand for the structures. A value given as a limit tells only on which side of the number the result lay.

The subject of assay [1] is MCF-7 cells. Put plainly: Breast Cancer Cell Viability Assay (MCF-7, CellTiter-Glo). In kind it is cell-based. The conditions noted are these: 5 days' compound exposure; for IC50: Homo sapiens, MCF7, 120 h. The protocol: MCF-7 cells were adjusted to a concentration of 20,000 cells per mL in RPMI containing 10% FBS and 20 mM HEPES. 16 microliters of the cell suspension (320 cells) was added to each well of a 384 well plate, and the cells were incubated overnight to allow the cells to adhere. The following day an eleven point, serial semilog dilution of each compound was added to the cells in 16 μL at a final concentration ranging from 0.3-0.000003 μM. After 5 days' compound exposure, 16 μL of CellTiter-GLo (Promega, Madison Wis.) was added to the cells the relative luminescence units (RLUs) of each well was determined CellTiter-Glo added to 32 μL of medium without cells was used to obtain a background value. The Percent viability of each sample was determined as follows: (RLU sample-RLU background/RLU untreated cells-RLU background)×100=% viability.

The target in assay [2] is T1, ER-α (Homo sapiens, UniProt P03372).
T1 sequence (P03372 1-595): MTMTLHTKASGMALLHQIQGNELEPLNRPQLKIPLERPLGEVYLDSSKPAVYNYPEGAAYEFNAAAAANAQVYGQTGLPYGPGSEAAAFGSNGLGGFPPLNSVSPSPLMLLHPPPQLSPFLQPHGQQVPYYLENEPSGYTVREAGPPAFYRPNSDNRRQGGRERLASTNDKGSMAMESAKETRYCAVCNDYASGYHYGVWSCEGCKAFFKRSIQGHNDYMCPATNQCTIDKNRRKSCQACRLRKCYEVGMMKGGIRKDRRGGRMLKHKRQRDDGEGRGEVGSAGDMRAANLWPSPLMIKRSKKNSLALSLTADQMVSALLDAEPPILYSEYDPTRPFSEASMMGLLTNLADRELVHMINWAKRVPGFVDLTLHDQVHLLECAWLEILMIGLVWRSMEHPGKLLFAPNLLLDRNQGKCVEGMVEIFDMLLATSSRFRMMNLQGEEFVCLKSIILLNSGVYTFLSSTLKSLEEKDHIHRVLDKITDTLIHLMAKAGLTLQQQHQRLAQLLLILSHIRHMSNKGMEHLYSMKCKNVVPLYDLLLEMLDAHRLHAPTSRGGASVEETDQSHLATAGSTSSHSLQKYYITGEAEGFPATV
Put plainly: Breast Cancer Cell ER-α In Cell Western Assay (SP1). Type of assay: cell-based. As to conditions: MCF-7 cells, SP1 antibody, 4 or 24 hr post compound addition; for Emax: MCF7, read-out: ER-α In Cell Western Assay (SP1) Max Response; for DC50: read-out: ER-α In Cell Western Assay (SP1) IC50. On the procedure:
MCF-7 cells were adjusted to a concentration of 200,000 cells per mL in RPMI containing 10% charcoal-stripped FBS and 20 mM HEPES. 16 microliters of the cell suspension (3200 cells) was added to each well of a poly-D-lysine 384 well plate, and the cells were incubated overnight to allow the cells to adhere. The following day an eleven point, serial semilog dilution of each compound was added to the cells in 16 μL at a final concentration ranging from 0.3-0.000003 μM. At 4 or 24 hr post compound addition, the cells were fixed (10% formalin in PBS) for 20 minutes. Cells were permeablized in PBS 0.1% Triton and blocked with LICOR blocking buffer (50 μL1/well, 90′). The wells were then incubated overnight at 4° C. with SP1 rabbit monoclonal Ab (Thermo Scientific) diluted 1:1000 in LICOR blocking buffer/0.1% Tween-20. Wells which were treated with blocking buffer with Tween but no antibody were used as a background control. Wells were washed with 0.1% Tween-20/PBS and then incubated in goat anti-rabbit IRDye™ 800CW (LICOR Inc.; 1:1000) and DRAQ5 DNA dye (1:2000 for 2 mM stock) diluted in LICOR blocking buffer containing 0.1% Tween-20 and 0.01% SDS for 60 minutes. Cells were washed (50 μl/well, 5′ each) in 0.1% Tween-20/PBS. Plates were scanned on a LICOR Odyssey infrared imaging system. Integrated intensities in the 800 nm channel and 700 nm channel were measured to determine levels of ER and DNA respectively. Percent ER levels were determined as follows: (Integrated intensity 800 nm sample/integrated intensity 700 nm sample)/(Integrated intensity 800 nm untreated cells/integrated intensity 700 nm untreated cells)×100=% ER levels.

For `CCOC(=O)/C=C/c1ccc(/C(=C(/CC)c2ccccc2)c2ccc3[nH]ncc3c2)cc1` [Compound 1, (E)-Ethyl 3-(4-((E)-1-(1H-indazol-5-yl)-2-phenylbut-1-en-1-yl)phenyl)acrylate], in assay [1], the “MCF7 Viability Assay Max Response” value is “+ (+ = a single % value < 40%)” and the 50% inhibitory concentration (IC50) was at most 100 nM. In assay [2], the Emax is at least 40% and the DC50 was at most 100 nM.

For `CC/C(=C(/c1ccc(/C=C/C(=O)O)cc1)c1ccc2[nH]ncc2c1)c1ccccc1` [Compound 2, (E)-3-(4-((E)-1-(1H-Indazol-5-yl)-2-phenylbut-1-en-1-yl)phenyl)acrylic acid], in assay [1], the “MCF7 Viability Assay Max Response” value is listed as “++ (++ = a single % value ≧ 40%)” and the concentration for half-maximal inhibition (IC50) is at most 100 nM. The Emax in assay [2] is at least 40%.

Turning to `CC/C(=C(/c1ccc(/C=C/C(=O)O)cc1)c1ccc2[nH]ncc2c1)c1ccc(F)cc1` [Compound 3, (E)-3-(4-((E)-2-(4-Fluorophenyl)-1-(1H-indazol-5-yl)but-1-en-1-yl)phenyl)acrylic acid], in assay [1], the “MCF7 Viability Assay Max Response” value is listed as “++ (++ = a single % value ≧ 40%)” and the IC50 is at most 100 nM. For the same molecule, in assay [2], the Emax was at least 40% and the DC50 was at most 100 nM.

Take `CC/C(=C(/c1ccc(/C=C/C(=O)O)cc1)c1ccc2[nH]ncc2c1)c1ccc(Cl)cc1` [Compound 4, (E)-3-(4-((E)-2-(4-Chlorophenyl)-1-(1H-indazol-5-yl)but-1-en-1-yl)phenyl)acrylic acid]: in assay [1], the “MCF7 Viability Assay Max Response” value was “++ (++ = a single % value ≧ 40%)” and the half-maximal inhibitory concentration (IC50) was at most 100 nM. In addition, the Emax in assay [2] is at least 40%.

On to `CC/C(=C(/c1ccc(/C=C/C(=O)O)cc1)c1ccc2[nH]ncc2c1)c1cccc(OC)c1` [Compound 5, (E)-3-(4-((E)-1-(1H-indazol-5-yl)-2-(3-methoxyphenyl)but-1-en-1-yl)phenyl)acrylic acid], for which, in assay [1], the “MCF7 Viability Assay Max Response” value is recorded as “++ (++ = a single % value ≧ 40%)” and the IC50 was at most 100 nM. For the same molecule, in assay [2], the Emax is at least 40% and the DC50 is at most 100 nM.

For the molecule `CC/C(=C(/c1ccc(/C=C/C(=O)O)cc1)c1ccc2[nH]ncc2c1)c1cccc(CO)c1` [Compound 6, (E)-3-(4-((E)-2-(3-(Hydroxymethyl)phenyl)-1-(1H-indazol-5-yl)but-1-en-1-yl)phenyl)acrylic acid], in assay [1], the “MCF7 Viability Assay Max Response” value is given as “++ (++ = a single % value ≧ 40%)” and the IC50 is over 100 nM. Also, in assay [2], the Emax was at least 40% and the DC50 was at most 100 nM.

As to `CC/C(=C(/c1ccc(/C=C/C(=O)O)cc1)c1ccc2[nH]ncc2c1)c1ccc(CO)cc1` [Compound 7, (E)-3-(4-((E)-2-(4-(Hydroxymethyl)phenyl)-1-(1H-indazol-5-yl)but-1-en-1-yl)phenyl)acrylic acid], in assay [1], the “MCF7 Viability Assay Max Response” value is “++ (++ = a single % value ≧ 40%)” and the half-inhibitory concentration (IC50) is at most 100 nM. In addition, in assay [2], the Emax was at least 40% and the DC50 is at most 100 nM.

Turning to `CC/C(=C(/c1ccc(/C=C/C(=O)O)cc1)c1ccc2[nH]ncc2c1)c1ccccc1CO` [Compound 8, (E)-3-(4-((E)-2-(2-(Hydroxymethyl)phenyl)-1-(1H-indazol-5-yl)but-1-en-1-yl)phenyl)acrylic acid], in assay [1], the “MCF7 Viability Assay Max Response” value was “++ (++ = a single % value ≧ 40%)” and the concentration for half-maximal inhibition (IC50) is over 100 nM. Moreover, in assay [2], the Emax is at least 40% and the DC50 was at most 100 nM.

For `CC/C(=C(/c1ccc(/C=C/C(=O)O)cc1)c1ccc2[nH]ncc2c1)c1ccccc1C` [Compound 9, (E)-3-(4-((E)-1-(1H-Indazol-5-yl)-2-(o-tolyl)but-1-en-1-yl)phenyl)acrylic acid], in assay [1], the “MCF7 Viability Assay Max Response” value is “++ (++ = a single % value ≧ 40%)” and the half-maximal inhibitory concentration (IC50) is at most 100 nM. Besides, in assay [2], the Emax was at least 40%.

In the case of `CC/C(=C(/c1ccc(/C=C/C(=O)O)cc1)c1ccc2[nH]ncc2c1)c1cccc(C)c1` [Compound 10, (E)-3-(4-((E)-1-(1H-Indazol-5-yl)-2-(m-tolyl)but-1-en-1-yl)phenyl)acrylic acid], in assay [1], the “MCF7 Viability Assay Max Response” value is on record as “++ (++ = a single % value ≧ 40%)” and the IC50 is at most 100 nM. Moreover, in assay [2], the Emax was at least 40% and the DC50 is at most 100 nM.

In the case of `CC/C(=C(/c1ccc(/C=C/C(=O)O)cc1)c1ccc2[nH]ncc2c1)c1ccc(C)cc1` [Compound 11, (E)-3-(4-((E)-1-(1H-Indazol-5-yl)-2-(p-tolyl)but-1-en-1-yl)phenyl)acrylic acid], in assay [1], the “MCF7 Viability Assay Max Response” value is “++ (++ = a single % value ≧ 40%)” and the 50% inhibitory concentration (IC50) was at most 100 nM. Also, in assay [2], the Emax is at least 40% and the DC50 was at most 100 nM.

For the molecule `CC/C(=C(/c1ccc(/C=C/C(=O)O)cc1)c1ccc2[nH]ncc2c1)c1ccccc1OC` [Compound 12, (E)-3-(4-((E)-1-(1H-Indazol-5-yl)-2-(2-methoxyphenyl)but-1-en-1-yl)phenyl)acrylic acid], in assay [1], the “MCF7 Viability Assay Max Response” value is “++ (++ = a single % value ≧ 40%)” and the half-inhibitory concentration (IC50) was at most 100 nM. Also, the Emax in assay [2] was at least 40%.

On to `CC/C(=C(/c1ccc(/C=C/C(=O)O)cc1)c1ccc2[nH]ncc2c1)c1ccc(OC)cc1` [Compound 13, (E)-3-(4-((E)-1-(1H-Indazol-5-yl)-2-(4-methoxyphenyl)but-1-en-1-yl)phenyl)acrylic acid], for which, in assay [1], the “MCF7 Viability Assay Max Response” value is recorded as “++ (++ = a single % value ≧ 40%)” and the IC50 was at most 100 nM. In assay [2], the Emax was at least 40% and the DC50 was at most 100 nM.

Turning to `CCOC(=O)/C=C/c1ccc(/C(=C(/CC)c2ccccc2OC)c2ccc3[nH]ncc3c2)cc1` [Compound 91, (E)-ethyl 3-(4-((E)-1-(1H-indazol-5-yl)-2-(2-methoxyphenyl)but-1-en-1-yl)phenyl)acrylate], in assay [1], the “MCF7 Viability Assay Max Response” value is recorded as “+ (+ = a single % value < 40%)” and the IC50 is at most 100 nM.

Regarding `CCOC(=O)/C=C/c1ccc(/C(=C(/CC)c2ccc(OC)cc2)c2ccc3[nH]ncc3c2)cc1` [Compound 92, (E)-Ethyl 3-(4-((E)-1-(1H-Indazol-5-yl)-2-(4-methoxyphenyl)but-1-en-1-yl)phenyl)acrylate], in assay [1], the “MCF7 Viability Assay Max Response” value is “+ (+ = a single % value < 40%)” and the half-maximal inhibitory concentration (IC50) is at most 100 nM.

Consider `CC/C(=C(/c1ccc(/C=C/C(=O)O)cc1)c1ccc2[nH]ncc2c1)c1ccc(F)cc1Cl` [Compound 111, (E)-3-(4-((E)-2-(2-Chloro-4-fluorophenyl)-1-(1H-indazol-5-yl)but-1-en-1-yl)phenyl)acrylic acid], for which, in assay [1], the “MCF7 Viability Assay Max Response” value is “++ (++ = a single % value ≧ 40%)” and the IC50 is at most 100 nM.

Consider `[2H]C([2H])([2H])C([2H])([2H])/C(=C(/c1ccc(/C=C/C(=O)O)cc1)c1ccc2[nH]ncc2c1)c1ccc(F)cc1Cl` [Compound 136, (E)-3-(4-((E)-2-(2-Chloro-4-fluorophenyl)-3,3,4,4,4-pentadeutero-1-(1H-indazol-5-yl)but-1-en-1-yl)phenyl)acrylic acid], for which, in assay [1], the “MCF7 Viability Assay Max Response” value is given as “++ (++ = a single % value ≧ 40%)” and the half-maximal inhibitory concentration (IC50) is at most 100 nM.

The term IC50 denotes the point on the concentration scale where inhibition reaches its midpoint. Read a low IC50 as greater potency in that assay.
